Data reported in PubChem BioAssay (NCI).
Where “and” joins values, the source holds several entries; their conditions need not be identical. Equal values may be shown once.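 Five compound concentrations were applied to cells in 96-well plates for 48 hours; endpoints were derived by simple linear interpolation of the resulting dose-response curve. GI50 is the concentration that inhibits growth by half. TGI marks complete inhibition of growth.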

Key:
Assay in all cases: NCI tumour cell line growth inhibition, 48 h
DMS 114 small cell lung = system: DMS 114 small cell lung
DMS 273 small cell lung = system: DMS 273 small cell lung
KM20L2 colon = system: KM20L2 colon
LXFL 529 NSCLC = system: LXFL 529 NSCLC
SNB-78 CNS = system: SNB-78 CNS
XF 498 CNS = system: XF 498 CNS
HOP-18 NSCLC = system: HOP-18 NSCLC
P388 leukemia = system: P388 leukemia
P388/ADR leukemia = system: P388/ADR leukemia
SN12K1 renal = system: SN12K1 renal

SMILES: CCN(CC)c1ccc(C(=C2C=CC(=[N+](CC)CC)C=C2)c2ccccc2)cc1
- TGI (DMS 114 small cell lung): 0.208 µM
- TGI (DMS 273 small cell lung): 0.134 µM
- TGI (KM20L2 colon): 0.117 µM
- TGI (LXFL 529 NSCLC): 0.115 µM
- TGI (SNB-78 CNS): 0.237 µM
- TGI (XF 498 CNS): 0.0391 µM

SMILES: O=C(CCN1CCCCC1CO)Nc1ccc2c(c1)C(=O)c1ccc(NC(=O)CCN3CCCCC3CO)cc1C2=O (stereo not given)
- TGI (DMS 114 small cell lung): 30.9 µM
- TGI (DMS 273 small cell lung): 19.2 µM
- TGI (KM20L2 colon): 76.4 µM
- TGI (LXFL 529 NSCLC): 9.71 µM
- TGI (SNB-78 CNS): 34.6 µM

SMILES: Fc1nc(F)nc(-c2c3ccccc3c3n2CCS3)n1
- TGI (DMS 114 small cell lung): > 100 µM
- TGI (DMS 273 small cell lung): > 100 µM
- TGI (KM20L2 colon): > 100 µM
- TGI (LXFL 529 NSCLC): > 100 µM
- TGI (SNB-78 CNS): > 100 µM
- TGI (XF 498 CNS): > 100 µM

SMILES: C=C1C(=O)C[C@@]23CCC[C@@]12CC(O)C3 (stereo not given in full)
- TGI (DMS 114 small cell lung): 38.3 µM
- TGI (DMS 273 small cell lung): 45.8 µM
- TGI (HOP-18 NSCLC): 37.4 µM
- TGI (KM20L2 colon): 47.9 µM
- TGI (P388 leukemia): 25.3 µM
- TGI (P388/ADR leukemia): 32.4 µM
- TGI (SN12K1 renal): 39.6 µM
- TGI (SNB-78 CNS): 99 µM
- TGI (XF 498 CNS): 41.1 µM

SMILES: COc1cc2cc3c4c(cc(OC)c(OC)c4c2cc1OC)CCN3C(=O)OCCBr
- TGI (DMS 273 small cell lung): > 100 µM
- TGI (KM20L2 colon): > 100 µM
- TGI (SNB-78 CNS): > 100 µM
- TGI (XF 498 CNS): > 100 µM

SMILES: CC(=O)Nc1ccc(C(=O)N2N=C(C)/C(=C/c3cccc(O)c3)C2=O)cc1
- TGI (DMS 114 small cell lung): > 100 µM
- TGI (DMS 273 small cell lung): > 100 µM
- TGI (XF 498 CNS): > 100 µM

SMILES: CC(=O)c1c(O)c(C)c(O)c2c1OC1=CC(=O)C(C(C)=O)C(=O)C12C (stereo not given)
- GI50 (DMS 114 small cell lung): 6.22 µM and 18.5 µM
- TGI (DMS 114 small cell lung): 29.9 µM and 58.3 µM
- GI50 (DMS 273 small cell lung): 3.74 µM and 7.53 µM
- TGI (DMS 273 small cell lung): 11.9 µM and 22.5 µM
- GI50 (HOP-18 NSCLC): 3.28 µM and 14.6 µM
- TGI (HOP-18 NSCLC): 10.6 µM and 67.2 µM
- GI50 (KM20L2 colon): 4.99 µM and 27 µM
- TGI (KM20L2 colon): 16.9 µM and 65.3 µM
- GI50 (P388 leukemia): 3.74 µM and 23.8 µM
- TGI (P388 leukemia): 26.3 µM and 60.3 µM
- GI50 (P388/ADR leukemia): 5.92 µM and 20.1 µM
- TGI (P388/ADR leukemia): 44.1 µM and 61.5 µM
- GI50 (SN12K1 renal): 4.99 µM and 14.1 µM
- TGI (SN12K1 renal): 19.4 µM and 39.3 µM
- GI50 (SNB-78 CNS): 8.87 µM and 28.8 µM
- TGI (SNB-78 CNS): 48.6 µM and 80.4 µM
- TGI (XF 498 CNS): 0.807 µM and 0.835 µM
